Where two headings read alike, the source gives them in different places. Values belong to the compound of their own block, whether it stands above or below them.
What was measured:
[1] = biological target: T1, Recombinant rhinovirus 3C protease, serotype 14 (Human rhinovirus 14, UniProt P03303); test: Inhibition of rhinovirus 3C protease (FRET assay, kobs/[I]), serotype 14; format: biochemical; conditions: pH 7.6, read-out: kobs/[I] (3C protease inhibition activity)
T1 construct: Recombinant rhinovirus 3C proteases; made in house
T1 sequence (P03303 1538-1719): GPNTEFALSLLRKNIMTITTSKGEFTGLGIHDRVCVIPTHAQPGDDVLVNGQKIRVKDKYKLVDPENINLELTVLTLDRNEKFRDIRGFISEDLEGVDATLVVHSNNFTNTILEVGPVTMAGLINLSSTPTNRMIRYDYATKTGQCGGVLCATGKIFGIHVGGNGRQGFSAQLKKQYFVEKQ
In short: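 Enzyme-start FRET assay with ~1 μM DABCYL/EDANS peptide substrate and 50-100 nM recombinant protease in 50 mM tris pH 7.6, 1 mM EDTA, 2% DMSO. Cleavage followed as fluorescence increase; kobs/[I] derived from progress curves.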

HRV-14 = test: Antirhinoviral H1-HeLa cell culture assay (XTT cell protection, EC50), HRV-14; format: cell-based, human rhinovirus (HRV) serotype-14 in H1-HeLa cells; conditions: Rhinovirus B, HRV14, H1-HeLa
In short: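 H1-HeLa cells were infected with HRV-14 at m.o.i. 0.13, or mock-infected, and incubated with compound for two days. Cell protection was read by XTT/PMS formazan absorbance at 450/650 nm to give EC50. CC50 came from mock-infected cells, and TI = CC50/EC50.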

[2] = Cytotoxicity (CC50) in mock-infected H1-HeLa cells, XTT dye reduction; format: cell-based, human; conditions: human
In short: (§1)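 H1-HeLa cells mock-infected, read by XTT/PMS formazan at 450/650 nm.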

[3] = test system: Coxsackievirus type A-21 (CAV-21); test: Anticoxsackieviral cell culture assay (XTT, EC50), CAV-21; format: cell-based, coxsackievirus A-21 in H1-HeLa cells; conditions: Coxsackievirus, read-out: EC50
Procedure: (§2) Anticoxsackieviral Cell Culture Assay:
(§3) Coxsackievirus types A-21 (CAV-21) and B3 (CVB3) were purchased from American Type Culture Collection (ATCC, Rockville, Md.). Virus stocks were propagated and antiviral assays were performed in H1-HeLa cells (ATCC). Cells were grown in minimal essential medium with 10% fetal bovine serum (Life Technologies, Gaithersburg, Md.). The ability of the compounds of this invention to protect cells against either CAV-21 or CVB3 infection was measured by the XTT dye reduction method. This method is described in Weislow et al., J. Natl. Cancer Inst. (1989), vol. 81, 577-586. H1-HeLa cells were infected with CAV-21 or CVB3 at a multiplicity of infection (m.o.i.) of 0.025 or 0.075, respectively, or mock-infected with medium only. H1-HeLa cells were plated at 4×10^4 cells per well in a 96-well plate and incubated with appropriate concentrations of the test compound. One day (CVB3) or two days (CAV-21) later, XTT/PMS was added to test plates and the amount of formazan produced was quantified spectrophotometrically at 450/650 nm. […] The therapeutic index (TI) was calculated by dividing the CC50 by the EC50.

[4] = test system: Coxsackievirus type B3 (CVB3); test: Anticoxsackieviral cell culture assay (XTT, EC50), CVB3; format: cell-based, coxsackievirus B3 in H1-HeLa cells; conditions: read-out: EC50
Procedure: as §2, §3

[5] = test system: Echovirus type 11 (ECHO 11); test: Anti-echoviral cell culture assay (XTT, EC50), ECHO 11; format: cell-based, echovirus 11 in MRC-5 cells; conditions: Enterovirus B, read-out: EC50
Procedure: (§4) Anti-Echoviral and Anti-Enteroviral Cell Culture Assays
(§5) Echovirus type 11 (ECHO 11) was purchased from ATCC (Rockville, Md.). Virus stocks were propagated and antiviral assays were performed in MRC-5 cells (ATCC). Cells were grown in minimal essential medium with 10% fetal bovine serum (Life Technologies, Gaithersburg, Md.). The ability of the compounds of this invention to protect cells against ECHO 11 infection was measured by the XTT dye reduction method (Weislow et al., J. Natl. Cancer Inst. (1989), vol. 81, 577-586). MRC-5 cells were infected with ECHO 11 at an m.o.i. of 0.003 or 0.004, respectively, or mock-infected with medium only. Infected or uninfected cells were added at 1×10^4 cells per well and incubated with appropriate concentrations of compound. Four days later, XTT/PMS was added to test plates, and the amount of formazan produced was quantified spectrophotometrically at 450/650 nm. […] The therapeutic index (TI) was calculated by dividing the CC50 by the EC50. Activity of the compounds against enterovirus type 70 (EV 70) may be measured by the same assay as described above in this section. Enterovirus type 70 (EV 70) may be obtained from the American Type Culture Collection ATCC (Rockville, Md.).

[6] = test system: enterovirus type 70 (EV 70); test: Anti-enteroviral cell culture assay (XTT, EC50), EV 70; format: cell-based, enterovirus 70 in MRC-5 cells; conditions: Enterovirus D
Procedure: as §4, §5

[7] = Cytotoxicity (CC50) in uninfected MRC-5 cells, XTT dye reduction; format: cell-based, human; conditions: human
Procedure: as §5

MRC-5 cells = test: as above; format: cell-based, human
Procedure: as §5

[8] = test system: strains of human rhinovirus (HRV); test: Antirhinoviral H1-HeLa cell culture assay (XTT cell protection, EC50), other HRV strains; format: cell-based, human rhinovirus in H1-HeLa cells; conditions: read-out: EC50
In short: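 H1-HeLa cells infected, or mock-infected, were incubated with compounds for two days. Cell protection measured by XTT/PMS formazan absorbance at 450/650 nm; TI taken as CC50 divided by EC50.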

H1-HeLa cells = test: Cytotoxicity (CC50) in mock-infected H1-HeLa cells, XTT dye reduction; format: cell-based, human
In short: as §1

coxsackievirus B2 (CVB2) = test: Antiviral cell culture assay (EC50), coxsackievirus B2; format: cell-based; conditions: Enterovirus B
coxsackievirus B5 (CVB5) = test: Antiviral cell culture assay (EC50), coxsackievirus B5; format: cell-based; conditions: Enterovirus B
echovirus 9 (ECHO-9) = test: Antiviral cell culture assay (EC50), echovirus 9; format: cell-based; conditions: Enterovirus B; ECHO9
[9] = Cytotoxicity (CC50), cell line not stated; format: cell-based
[10] = H1-HeLa cells, mock-infected, line of HRV-14
[11] = H1-HeLa cells, uninfected (mock-infected), line of CAV-21
[12] = H1-HeLa cells, uninfected (mock-infected), line of CVB3
[13] = MRC-5 cells, uninfected (mock-infected), line of ECHO-11
[14] = H1-HeLa cells, mock-infected, HRV-14

- kinact/KI ([1]; HRV-14): 37400 M⁻¹ s⁻¹
- EC50 (HRV-14; HRV-14, read-out: EC50): 34 nM
- EC50 ([3]; CAV-21): 4680 nM
- EC50 ([4]; CVB3): 2500 nM
- EC50 ([5]; ECHO-11): 346 nM
- EC50 ([6]; ENT-70): 61 nM
SMILES: CCOC(=O)/C=C/[C@H](CCC(N)=O)NC(=O)[C@H](Cc1ccccc1)n1cccc(NC(=O)C2CCCC2)c1=O [Compound 6, trans-(2′S,4S)-6-Carbamoyl-4-{2′-[3″-cyclopentanecarbonylamino-2″-oxo-2″H-pyridin-1″-yl]-3′-phenylpropionylamino}hex-2-enoic Acid Ethyl Ester]
- CC50 at 2 days [2, 10]: > 10000 nM
- CC50 at 2 days [2, 11]: > 10000 nM
- CC50 at 1 day [2, 12]: > 10000 nM
- CC50 at 4 days [7, 13]: > 10000 nM
- CC50 (MRC-5 cells; line of ENT-70): > 10000 nM

- kinact/KI ([1]; HRV-14): 329000 M⁻¹ s⁻¹
- EC50 (HRV-14; HRV-14, read-out: EC50): 16 nM
- EC50 ([3]; CAV-21): 1390 nM
- EC50 ([4]; CVB3): 577 nM
- EC50 ([5]; ECHO-11): 54 nM
- EC50 ([6]; ENT-70): 18 nM
SMILES: CCOC(=O)/C=C\[C@H](CCC(N)=O)NC(=O)[C@H](Cc1ccccc1)n1cccc(NC(=O)c2cc(C)on2)c1=O [Compound 5, trans-(2′S,4S)-6-Carbamoyl-4-(2′-{3″-[(5′″-methylisoxazole-3′″-carbonyl)amino]-2″-oxo-2″H-pyridin-1″-yl}-3′-phenylpropionylamino)hex-2-enoic Acid Ethyl Ester]
- CC50 at 2 days [2, 10]: > 10000 nM
- CC50 at 2 days [2, 11]: > 10000 nM
- CC50 at 1 day [2, 12]: > 10000 nM
- CC50 at 4 days [7, 13]: > 10000 nM
- CC50 (MRC-5 cells; line of ENT-70): > 10000 nM

- EC50 (HRV-14; HRV-14, read-out: EC50): 30 nM
- EC50 ([3]; CAV-21, H1-HeLa cells): > 100000 nM
- EC50 ([4]; CVB3, H1-HeLa cells): > 100000 nM
SMILES: CCOC(=O)c1ccc(OCCC2CCN(c3ccc(C)nn3)CC2)cc1 [Pirodavir, reference compound]
- CC50 at 2 days [2, 14]: > 10000 nM
- CC50 at 2 days ([2]; mock-infected (uninfected) H1-HeLa cells, CAV-21): > 100000 nM
- CC50 at 1 day ([2]; mock-infected (uninfected) H1-HeLa cells, CVB3): > 100000 nM
- EC50 ([5]; MRC5, ECHO-11 (also printed EV-11), MRC-5 cells): 3700 nM
- EC50 ([6]; MRC5, ENT-70, MRC-5 cells): 60 nM
- CC50 at 4 days ([7]; uninfected (mock-infected) MRC-5 cells, ECHO-11 (EV-11) row): > 10000 nM
- CC50 (MRC-5 cells; ENT-70 row): > 10000 nM

- kinact/KI ([1]; HRV-14): 114000 M⁻¹ s⁻¹
- EC50 (HRV-14; HRV-14, read-out: EC50): 33 nM
- EC50 ([3]; CAV-21): 1480 nM
- EC50 ([4]; CVB3): 539 nM
- EC50 ([5]; ECHO-11): 160 nM
- EC50 ([6]; ENT-70): 12 nM
SMILES: CCOC(=O)/C=C/[C@H](CCC(N)=O)NC(=O)[C@H](Cc1ccccc1)n1cccc(NC(=O)OCc2ccccc2)c1=O [Compound 1, trans-(2′S,4S)-4-[2′-(3″-Benzyloxycarbonylamino-2″-oxo-2″H-pyridin-1″-yl)-3′-phenylpropionylamino]-6-carbamoylhex-2-enoic Acid Ethyl Ester]
- CC50 at 2 days [2, 10]: 50100 nM
- CC50 at 2 days [2, 11]: > 10000 nM
- CC50 at 1 day [2, 12]: > 10000 nM
- CC50 at 4 days [7, 13]: > 10000 nM
- CC50 (MRC-5 cells; line of ENT-70): > 10000 nM

SMILES: CC[C@@H](C(=O)N[C@H](/C=C/C(=O)OC1CCC1)C[C@@H]1CCNC1=O)n1cccc(NC(=O)c2cc(C)on2)c1=O [Compound 59, trans-(2′S,3′″″S,4S)-4-[2′-(3″-{[1′″-(5″″-Methylisoxazol-3″″-yl)methanoyl]amino}-2′″oxo-2′″H-pyridin-1′″-yl)butanoylamino]-5-(2′″″-oxopyrrolidin-3′″″-yl)pent-2-enoic Acid Cyclobutyl Ester]
- kinact/KI ([1]; HRV-14 3C protease): 170000 M⁻¹ s⁻¹
- EC50 (HRV-14): 20 nM
- EC50 ([8]; H1-HeLa, HRV-1A): 84 nM
- EC50 ([8]; H1-HeLa, HRV-2): 49 nM
- EC50 ([8]; H1-HeLa, HRV-23): 37 nM
- EC50 ([8]; Human rhinovirus sp., H1-HeLa, HRV-Hanks): 83 nM
- EC50 ([8]; Human rhinovirus sp., HRV3, H1-HeLa, HRV-3): 33 nM
- EC50 ([8]; Human rhinovirus sp., HRV9, H1-HeLa, HRV-9): 70 nM
- EC50 ([8]; Human rhinovirus sp., HRV10, H1-HeLa, HRV-10): 58 nM
- EC50 ([8]; Human rhinovirus sp., HRV11, H1-HeLa, HRV-11): 14 nM
- EC50 ([8]; Human rhinovirus sp., HRV13, H1-HeLa, HRV-13): 12 nM
- EC50 ([8]; Human rhinovirus sp., HRV16, H1-HeLa, HRV-16): 105 nM
- EC50 ([8]; Human rhinovirus sp., HRV19, H1-HeLa, HRV-19): 44 nM
- EC50 ([8]; Human rhinovirus sp., HRV25, H1-HeLa, HRV-25): 42 nM
- EC50 ([8]; Human rhinovirus sp., HRV39, H1-HeLa, HRV-39): 122 nM
- EC50 ([8]; Human rhinovirus sp., HRV78, H1-HeLa, HRV-78): 73 nM
- CC50 at 2 days [2, 14]: > 10000 nM
- CC50 (H1-HeLa cells; HRV-1A): > 10000 nM
- CC50 (H1-HeLa cells; HRV-2): > 10000 nM
- CC50 (H1-HeLa cells; HRV-3): > 10000 nM
- CC50 (H1-HeLa cells; HRV-9): > 10000 nM
- CC50 (H1-HeLa cells; HRV-10): > 10000 nM
- CC50 (H1-HeLa cells; HRV-11): > 10000 nM
- CC50 (H1-HeLa cells; HRV-13): > 10000 nM
- CC50 (H1-HeLa cells; HRV-16): > 10000 nM
- CC50 (H1-HeLa cells; HRV-19): > 10000 nM
- CC50 (H1-HeLa cells; HRV-23): > 10000 nM
- CC50 (H1-HeLa cells; HRV-25): > 10000 nM
- CC50 (H1-HeLa cells; HRV-39): > 10000 nM
- CC50 (H1-HeLa cells; HRV-78): > 10000 nM
- CC50 (H1-HeLa cells; HRV-Hanks): > 10000 nM
- EC50 (coxsackievirus B2 (CVB2)): 50 nM
- EC50 (coxsackievirus B5 (CVB5)): 40 nM
- EC50 (echovirus 9 (ECHO-9)): 40 nM
- CC50 ([9]; CVB2): > 10000 nM
- CC50 ([9]; CVB5): > 10000 nM
- CC50 ([9]; ECHO9): > 10000 nM

— patent US6514997B2, “Antipicornaviral compounds and compositions, their pharmaceutical uses, and materials for their synthesis” (Agouron Pharmaceuticals, Inc., priority 1999, dated 2003)
